{"source": "paper PMC5145181", "about": "“Structural Mapping and Functional Characterization of Zebrafish Class B G-Protein Coupled Receptor (GPCR) with Dual Ligand Selectivity towards GLP-1 and Glucagon” (PLoS ONE, 2016)", "key": {"[1]": {"test_system": "zfGPCR (dual zfGLP-1R/GCGR)", "details": "cited from earlier work", "procedure": "Furthermore, exendin-4, an agonist of hGLP-1R, displaced in competitive binding experiments the binding of ^125I-hGLP-1(7–36) amide to the zebrafish receptor with an IC50 of 0.9 nM, which is within a similar concentration range as the one determined in competitive binding experiments with recombinant hGLP-1R [41] and rGLP-1R [23]. However, subsequent phylo ..."}, "[2]": {"test_system": "zfGPCR (dual zfGLP-1R/GCGR)", "assay": "Competitive binding, displacement of 125I-exendin(9–39) from recombinant zfGPCR expressed in COS-7 cells", "design": "species or system zebrafish (Danio rerio)", "details": "125I-exendin(9–39) tracer, intact COS-7 cells, 16–18 h at 4°C, triplicate wells, NSB with 1 μM peptide, n = 4 zfGLP-1, n = 3 hGLP-1, zf glucagon, exendin-4, n = 5 exendin(9–39). 95% CI: zfGLP-1 225–371, hGLP-1 121–262, zf glucagon 78.5–144, h glucagon 33.6–134, exendin-4 0.84–1.17, exendin(9–39) 3.42–5.17", "procedure": "Competitive binding experiments were performed with the recombinant zfGPCR expressed in COS-7 cells, as described previously. Transient transfections of pcDNA3 vector containing recombinant zfGPCR into COS-7 cells were performed as described below for the stimulation of intracellular cAMP. Cells were grown in 100-mm plates to confluence and 24 hr after transfection they were trypsinized and transferred to 24 well plates (Biocore, Becton Dickinson). 24–48 hr later each peptide (pM to μM) was added in triplicate wells followed by the addition of an aliquot (100,000 cpm/well) of either ^125I-hGLP-1(7–36)amide or ^125I-exendin(9–39) (each radioactive peptide tracer at […] receptor grade, NEN Life Science Products, Boston, MA). Peptides, radioiodinated ^125I-tracer and cells were incubated for 16–18 h at 4°C. After incubation cells were washed twice with ice-cold PBS, lysed with 1N NaOH and radioactivity measured in a γ-counter. A single dose-displacement curve for each peptide was obtained in a single 24-well plate.\nNon-specific binding was determined in the presence of 1μM of each peptide.\nIC50 values represent an average of n experiments as described above and were calculated by the Prism 4 software. Displacement curves from the competitive binding experiments were plotted by Origin 9 software (OriginLab). Error bars are shown for data points in the displacement curves obtained in two or more rounds of transfections.\n(§1) Results from the functional experiments with recombinant zfGPCR transiently expressed in COS-7 cells were analyzed by the Prism 4 software using a four-parameter logistic sigmoidal curve fit model. Data points represent mean +/- SEM.\nThey are shown together with the 95% confidence intervals (CIs). The F-test was used to compare the IC50 value for zfGLP-1 with the IC50 values for the other tested peptides obtained in the competitive binding experiments shown when ^125I-hGLP-1(7–36)amide or ^125I-exendin (9–39) were used as tracers. Following conditions were used for the curve fitting: (i) in the normalization step y = 0%was set to be 0, y = 100% was set to be 100; (ii) constrained curve-fit parameters were set to be equal to 0.00 on the bottom, 100 on top; (iii) IC50 was not constrained; (iv) the selected option in the non-linear regression curve fit was intended on finding out whether the best-fit of a selected parameter (IC50) differs between two sets."}, "[3]": {"test_system": "zfGPCR (dual zfGLP-1R/GCGR)", "assay": "Intracellular cAMP in COS-7 cells expressing recombinant zfGPCR", "assay_type": "cell-based, zebrafish (Danio rerio)", "details": "20 min at 37°C, pH 7.4, 1 mM 1-methyl-3-isobutylxanthine, enzyme immunoassay; n = 9 zfGLP-1, n = 5 hGLP-1, zf glucagon, h glucagon, n = 3 exendin-4, n = 6 zfGLP-2. 95% CI: zfGLP-1 0.24–0.80; hGLP-1 0.65–1.63; zf glucagon 0.20–2.9; h glucagon 0.18–1.63; exendin-4 0.07–0.46; zfGLP-2 16.8–72.6", "procedure": "The ability of different peptides to stimulate the increase in intracellular cAMP levels following their binding to the recombinant zfGPCR transiently expressed in COS-7 cells was measured using methods that we developed for non-mammalian G-protein coupled receptors. In brief, COS-7 cells were grown to confluence in 100-mm plates at 37°C and transfected with the pcDNA3 vector containing the recombinant zfGPCR using the TransFast transfection reagent (Promega, Madison, WI) at a […] of plasmid DNA (25 ug) to transfection reagent (75 μL). After 24 h cells were trypsynized and transferred to 24-well plates (Biocore, Becton-Dickinson, Franklin Lakes, NJ). Peptides (pM-μM) were added 24–48 h later. Cells were equilibrated prior to the addition of peptides with the assay buffer (DMEM, 0.5% BSA, 20mM HEPES, 1mM 1-methyl-3-isobutylxanthine, 0.1mM phenylmethylsulfonyl fluoride, pH 7.4) for 20 min at 37°C. Each peptide concentration was added in triplicate wells for 20 min at 37°C. cAMP dose-response curves for each tested peptide were obtained in a single 24-well plate. In all experiments, forskolin (100 nM) (Sigma-Aldrich, St.Louis, MO) was added as a positive control, also in triplicate wells, in the same 24-well plate as the tested peptide. After incubation, the media was removed and cells were lysed by the addition of cold ethanol (1 mL per well). Cell debris was pelleted by centrifugation (10,000 g) for 10-min, and supernatants were dried using a vacuum concentrator. Samples were resuspended in an assay buffer provided by the manufacturer and cAMP levels were quantified by the enzyme immunoassay kit (Cayman Chemicals, Ann Arbor, MI) according to the manufacturer’s instructions. The basal concentration of cAMP (in the absence of peptides) was taken as 1.00, and was in the range of 9–16 pmol/well. Results are presented as a fold-increase over basal.\nResults were plotted by the Origin 9 software (OriginLab), and EC50 values were calculated by Prism 4 software as described below.\nas §1\nThey are shown together with the 95% confidence intervals (CIs).\nComparison of EC50 values calculated from the zfGLP-1 cAMP dose-response curve with the EC50 calculated from the cAMP dose-response curves for each of the tested peptides were performed by the F-test from the Prism 4 software which compares the fitted mid-point (EC50) from the data sets of the two dose-response curves under comparison. Conditions of analysis were as follows: (i) in the normalization step y = 0% was set to be 1 (the basal cAMP concentration taken as 1); y = 100% was set to be the largest value in each data set; (ii) constrained curve-fit parameters were set to be equal to 0.00 on the bottom, 100 on top; (iii) EC50 was not constrained; (iv) the selected option in the non-linear regression curve fit was intended on finding out whether the best-fit of a selected parameter (EC50) differs between two sets."}}, "note": "Read-outs that look alike come from different tables or passages of the source.", "data": [{"substance": "exendin-4: peptide exclusively found in the saliva of a lizard; agonist of GLP-1R; purchased from Bachem", "values": [{"measurement": "IC50 (in words)", "setting": "[1]; competitive binding, recombinant zfGPCR, similar to rGLP-1R and hGLP-1R", "value": "in the low nM range"}, {"measurement": "IC50", "setting": "[1]; displacement of 125I-hGLP-1(7–36)amide, read-out: IC50 in competitive binding (earlier characterization of the zfGPCR)", "value": 900, "unit": "pM"}, {"measurement": "IC50", "setting": "[2]", "value": 1000, "unit": "pM"}, {"measurement": "EC50", "setting": "[3]", "value": 180, "unit": "pM"}]}]}
